#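 Test compounds were applied to cells in 96-well plates for 48 hours at 5 doses. Abbreviation: GI50, concentration required for 50% inhibition of growth.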 Calls of active or inactive are those of the source. No stated cut-off is given here; in the data, active = GI50 up to about 1.1 µM and inactive = higher.
# Tests used:
# Assay in all cases: NCI-60 cell line screen, 48 h
# SF-268 = test system: SF-268
# HCT-15 = test system: HCT-15
# NCI-H23 = test system: NCI-H23
# MDA-N = test system: MDA-N
# MDA-MB-435 = test system: MDA-MB-435
# OVCAR-8 = test system: OVCAR-8
# T47D = test system: T47D
# CCRF-CEM = test system: CCRF-CEM
# UACC-62 = test system: UACC-62
# 786-0 = test system: 786-0
# KM12 = test system: KM12
# LOX IMVI = test system: LOX IMVI
# Hs-578T = test system: Hs-578T
# NCI/ADR-RES = test system: NCI/ADR-RES
# SK-MEL-5 = test system: SK-MEL-5
# CAKI-1 = test system: CAKI-1
# SN12C = test system: SN12C
SMILES,GI50 (SF-268),GI50 (HCT-15) [µM],GI50 (NCI-H23),GI50 (MDA-N),GI50 (MDA-MB-435),GI50 (OVCAR-8),GI50 (T47D),GI50 (CCRF-CEM),GI50 (UACC-62),GI50 (786-0),GI50 (KM12),GI50 (LOX IMVI),GI50 (Hs-578T),GI50 (NCI/ADR-RES),GI50 (SK-MEL-5),GI50 (CAKI-1),GI50 (SN12C)
C=C1[C@H](OC(=O)C(C)C)[C@]23CC4(O)[C@@H]5[C@@]6(C)CCC[C@]57C([C@@H]2C[C@@]1(O)[C@H](O)[C@@H]73)N4C6,> 100 µM (inactive),> 100,> 100 µM (inactive),> 100 µM (inactive),> 100 µM (inactive),> 100 µM (inactive),> 100 µM (inactive),> 100 µM (inactive),> 100 µM (inactive),> 100 µM (inactive),> 100 µM (inactive),> 100 µM (inactive),> 100 µM (inactive),> 100 µM (inactive),> 100 µM (inactive),> 100 µM (inactive),–
O=S(=O)(c1ccccc1)n1c2ccc(Br)cc2c2nc3ccccc3nc21,> 100 µM (inactive),> 100,> 100 µM (inactive),> 100 µM (inactive),> 100 µM (inactive),> 100 µM (inactive),> 100 µM (inactive),> 100 µM (inactive),> 100 µM (inactive),> 100 µM (inactive),> 100 µM (inactive),> 100 µM (inactive),> 100 µM (inactive),> 100 µM (inactive),> 100 µM (inactive),> 100 µM (inactive),> 100 µM (inactive)
COC(=O)c1ccc(/C=N/c2cc(C)nn2-c2ccccc2)cc1,57.1 µM (inactive),13.7,48.5 µM (inactive),13.8 µM (inactive),8.65 µM (inactive),73.8 µM (inactive),16.4 µM (inactive),29.2 µM (inactive),65.8 µM (inactive),67 µM (inactive),24.2 µM (inactive),35.9 µM (inactive),91.2 µM (inactive),49.3 µM (inactive),19.4 µM (inactive),93.1 µM (inactive),48.3 µM (inactive)
Cc1nc2c(O)nc3ccccc3c2o1,> 100 µM (inactive),> 100,> 100 µM (inactive),> 100 µM (inactive),> 100 µM (inactive),> 100 µM (inactive),> 100 µM (inactive),> 100 µM (inactive),> 100 µM (inactive),> 100 µM (inactive),> 100 µM (inactive),> 100 µM (inactive),> 100 µM (inactive),> 100 µM (inactive),> 100 µM (inactive),> 100 µM (inactive),> 100 µM (inactive)
Cc1ccc(S(=O)(=O)NN=C2C(C)(C)CC2(C)C)cc1,> 100 µM (inactive),> 100,> 100 µM (inactive),> 100 µM (inactive),> 100 µM (inactive),> 100 µM (inactive),> 100 µM (inactive),68.7 µM (inactive),> 100 µM (inactive),> 100 µM (inactive),> 100 µM (inactive),> 100 µM (inactive),> 100 µM (inactive),> 100 µM (inactive),> 100 µM (inactive),> 100 µM (inactive),> 100 µM (inactive)
C=CCn1c(=O)ccn(/C(=C/C(=O)OCC)C(=O)OCC)c1=O,19.7 µM (inactive),1.83,17.1 µM (inactive),15.5 µM (inactive),12.8 µM (inactive),15.6 µM (inactive),5.13 µM (inactive),2.08 µM (inactive),15.7 µM (inactive),3.48 µM (inactive),17.5 µM (inactive),6.7 µM (inactive),22.5 µM (inactive),21.3 µM (inactive),15.1 µM (inactive),1.91 µM (inactive),8.73 µM (inactive)
CC(=O)NNc1nc(C)c(C(/C=C/c2ccc([N+](=O)[O-])cc2)=N/NC(N)=S)s1,> 100 µM (inactive),> 100,> 100 µM (inactive),> 100 µM (inactive),> 100 µM (inactive),> 100 µM (inactive),> 100 µM (inactive),> 100 µM (inactive),> 100 µM (inactive),> 100 µM (inactive),> 100 µM (inactive),> 100 µM (inactive),> 100 µM (inactive),> 100 µM (inactive),> 100 µM (inactive),> 100 µM (inactive),> 100 µM (inactive)
C/C=C/[C@H]1O[C@@](OC)([C@@H](C)[C@H](O)[C@H](C)[C@H]2OC(=O)/C(OC)=C/C(C)=C/[C@@H](C)[C@@H](O)[C@@H](C)[C@@H](O)[C@H](C)C/C(C)=C/C=C/[C@@H]2OC)CC(OC2CC(O)C(OC(N)=O)C(C)O2)[C@@H]1C (some centres undefined),< 0.01 µM (active),< 0.01,1.99 µM (inactive),< 0.01 µM (active),< 0.01 µM (active),< 0.01 µM (active),< 0.01 µM (active),< 0.01 µM (active),< 0.01 µM (active),< 0.01 µM (active),< 0.01 µM (active),< 0.01 µM (active),2.08 µM (inactive),0.0953 µM (active),< 0.01 µM (active),< 0.01 µM (active),0.589 µM (active)
Cc1cccc(/C=N/NC(=S)NC2CCCCC2)n1,32 µM (inactive),5.26,32.4 µM (inactive),28.4 µM (inactive),33.7 µM (inactive),19.4 µM (inactive),2.58 µM (inactive),1.14 µM (inactive),21.3 µM (inactive),20 µM (inactive),31.1 µM (inactive),14 µM (inactive),31.1 µM (inactive),11.9 µM (inactive),29.9 µM (inactive),43.3 µM (inactive),27.4 µM (inactive)
CCOC(=O)c1c(N2CCCC2)[nH]c(=O)c(C(c2c(O)c(C(=O)OCC)c(N3CCCC3)[nH]c2=O)C(C)C)c1O,72.4 µM (inactive),> 100,71.1 µM (inactive),> 100 µM (inactive),> 100 µM (inactive),> 100 µM (inactive),> 100 µM (inactive),> 100 µM (inactive),> 100 µM (inactive),61.8 µM (inactive),> 100 µM (inactive),> 100 µM (inactive),42.1 µM (inactive),> 100 µM (inactive),> 100 µM (inactive),48 µM (inactive),> 100 µM (inactive)
C/C(=C/CC[C@](C)(OC1OC(CO)C(O)C(O)C1O)[C@H]1CC[C@]2(C)[C@@H]1CC[C@@H]1[C@@]3(C)CC[C@H](O)C(C)(C)[C@@H]3C[C@H](O)[C@]12C)CO (some centres undefined),21.8 µM (inactive),18.1,45.1 µM (inactive),24.2 µM (inactive),36 µM (inactive),33.3 µM (inactive),16.9 µM (inactive),27.9 µM (inactive),19.1 µM (inactive),12.6 µM (inactive),22.7 µM (inactive),18.1 µM (inactive),16.2 µM (inactive),47.4 µM (inactive),18.2 µM (inactive),31.7 µM (inactive),22 µM (inactive)
CC(C)(C)c1ccc(O)c(CN(Cc2c(O)ccc3ccccc23)C2CCCCC2)c1,16.1 µM (inactive),16.4,16.4 µM (inactive),15.5 µM (inactive),19.2 µM (inactive),15.2 µM (inactive),17.9 µM (inactive),13.9 µM (inactive),15.6 µM (inactive),15.5 µM (inactive),17.6 µM (inactive),10.4 µM (inactive),27.4 µM (inactive),16.3 µM (inactive),16.5 µM (inactive),15.2 µM (inactive),17.3 µM (inactive)
CC1=C(C)CC2C(=O)N(c3cc(C(C)(C)C)ccc3C(C)(C)C)C(=O)C2C1 (centres undefined),7.91 µM (inactive),> 100,94.4 µM (inactive),> 100 µM (inactive),> 100 µM (inactive),> 100 µM (inactive),> 100 µM (inactive),> 100 µM (inactive),14.5 µM (inactive),64.9 µM (inactive),> 100 µM (inactive),> 100 µM (inactive),5.82 µM (inactive),> 100 µM (inactive),> 100 µM (inactive),> 100 µM (inactive),> 100 µM (inactive)
N#CC1CCCC2SC(F)(F)C(F)(F)C12 (centres undefined),> 100 µM (inactive),> 100,> 100 µM (inactive),> 100 µM (inactive),> 100 µM (inactive),> 100 µM (inactive),> 100 µM (inactive),26.4 µM (inactive),> 100 µM (inactive),> 100 µM (inactive),> 100 µM (inactive),41.6 µM (inactive),> 100 µM (inactive),> 100 µM (inactive),> 100 µM (inactive),> 100 µM (inactive),> 100 µM (inactive)
COc1ccc(C)cc1N1C(=O)C2ON(Cc3ccc(CC(N)=O)cc3)C(c3c4ccccc4c(Cl)c4ccccc34)C2C1=O (centres undefined),26.5 µM (inactive),22.4,29.3 µM (inactive),14.6 µM (inactive),21.9 µM (inactive),27.6 µM (inactive),27.4 µM (inactive),21.5 µM (inactive),19.7 µM (inactive),21.4 µM (inactive),14 µM (inactive),22.8 µM (inactive),41.9 µM (inactive),26.1 µM (inactive),–,25.8 µM (inactive),20.2 µM (inactive)
Nc1nc(Cl)c(N)c(NCC2(CO)CCCC2)n1,> 100 µM (inactive),> 100,–,> 100 µM (inactive),80 µM (inactive),> 100 µM (inactive),0.826 µM (active),> 100 µM (inactive),1.83 µM (inactive),> 100 µM (inactive),> 100 µM (inactive),97.9 µM (inactive),> 100 µM (inactive),> 100 µM (inactive),30.8 µM (inactive),> 100 µM (inactive),> 100 µM (inactive)

# Source: ChEMBL document CHEMBL1201862, “PubChem BioAssay data set” (2004)
